Values quoted from earlier work as cited in patent publication US20050064031A1, “Combination contraceptive, kits that contain the latter, and a method that uses the latter” (priority 1995, published 2005).

System: breast tumors
Conditions: rats treated before the administration of a carcinogen

CN(C)c1ccc([C@H]2C[C@]3(C)[C@@H](CC[C@]3(O)CCCO)[C@@H]3CCC4=CC(=O)CCC4=C32)cc1 [onapristone]
development of breast tumors: can be inhibited
